Blank lines part the entries; values can stand above or below the compound they belong to. Calls of active or inactive are those of the source. The calls are words filed in the database; no cut-off is given here.
Experiments:
Rattus norvegicus [1] = assay: Antiarrhythmic activity in Wistar rat assessed as inhibition of adrenaline-induced premature ventricular extrasystoles administered iv 15 mins prior to adrenaline challenge; format: functional
Blood [2] = assay: Anti-aggregative activity in Wistar rat whole blood assessed as inhibition of collagen/adrenaline-induced aggregation up to 100 uM preincubated for 3 mins followed by collagen induction measured for 6 mins; format: functional, tissue-based
Rattus norvegicus [3] = assay: In vivo inhibition of beta adrenoceptor in Wistar rat assessed as reduction in isoprenaline-induced tachycardia at 1 mg/kg, iv administered as single dose 10 mins prior to isoprenaline injection; format: functional, organism-based
Blood [4] = assay: Anti-aggregative activity in Wistar rat whole blood assessed as inhibition of collagen-induced aggregation up to 100 uM preincubated for 3 mins followed by collagen induction measured for 6 mins; format: functional, tissue-based
[5] = (§1) Inhibition of voltage gated calcium channel in Wistar rat aorta assessed as relaxation of KCl-precontracted aortic rings by measuring reduction in calcium entry in presence of phentolamine
Rattus norvegicus [6] = species on record: Rattus norvegicus; assay: as §1
Rattus norvegicus [7] = assay: Hypotensive activity in normotensive Wistar rat assessed as diastolic blood pressure at 5 mg/kg, iv measured after 5 mins (reference value: 86.5 to 119.4 mmHg); format: functional
Rattus norvegicus [8] = assay: Cardiotoxicity in Wistar rat assessed as effect on PQ interval time at 5 mg/kg, iv measured after 5 mins (reference value: 52 to 57 ms); format: toxicity, organism-based; conditions: in vivo
Rattus norvegicus [9] = assay: Hypotensive activity in normotensive Wistar rat assessed as diastolic blood pressure at 5 mg/kg, iv measured after 30 mins (reference value: 86.5 to 119.4 mmHg); format: functional
Rattus norvegicus [10] = assay: Cardiotoxicity in Wistar rat assessed as effect on heart rate at 5 mg/kg, iv measured after 15 mins (reference value: 323 to 374.5 bpm); format: toxicity, organism-based; conditions: in vivo, 0.25 h
Rattus norvegicus [11] = assay: Hypotensive activity in normotensive Wistar rat assessed as diastolic blood pressure at 5 mg/kg, iv measured after 10 mins (reference value: 86.5 to 119.4 mmHg); format: functional
Rattus norvegicus [12] = assay: Hypotensive activity in normotensive Wistar rat assessed as systolic blood pressure at 5 mg/kg, iv measured after 5 mins (reference value: 119.2 to 148.6 mmHg); format: functional
Rattus norvegicus [13] = assay: Cardiotoxicity in Wistar rat assessed as effect on QTC interval time at 5 mg/kg, iv measured after 1 min (reference value: 136.7 to 146.2 ms); format: toxicity, organism-based; conditions: in vivo
Rattus norvegicus [14] = assay: Hypotensive activity in normotensive Wistar rat assessed as diastolic blood pressure at 5 mg/kg, iv measured after 20 mins (reference value: 86.5 to 119.4 mmHg); format: functional
[15] = target: Beta-2 adrenergic receptor (Cavia porcellus, UniProt Q8K4Z4); assay: Antagonist activity at adrenergic beta2 receptor in isolated guinea pig trachea assessed as inhibition of isoprenaline-induced bronchodilation incubated for 20 mins; format: functional; conditions: read-out: pA2 (converted)
Rattus norvegicus [16] = assay: Cardiotoxicity in Wistar rat assessed as effect on QRS interval time at 5 mg/kg, iv measured after 15 mins (reference value: 16.7 to 20.7 ms); format: toxicity, organism-based; conditions: in vivo, 0.25 h
Rattus norvegicus [17] = assay: Cardiotoxicity in Wistar rat assessed as effect on PQ interval time at 5 mg/kg, iv measured after 15 mins (reference value: 52 to 57 ms); format: toxicity, organism-based; conditions: in vivo, 0.25 h
Rattus norvegicus [18] = assay: In vivo inhibition of beta adrenoceptor in Wistar rat assessed as reduction in isoprenaline-induced tachycardia at 5 mg/kg, iv administered as single dose 10 mins prior to isoprenaline injection; format: functional, organism-based
Rattus norvegicus [19] = assay: Cardiotoxicity in Wistar rat assessed as effect on QT interval time at 5 mg/kg, iv measured after 1 min (reference value: 57.7 to 61 ms); format: toxicity, organism-based; conditions: in vivo
Rattus norvegicus [20] = assay: Cardiotoxicity in Wistar rat assessed as effect on QTC interval time at 5 mg/kg, iv measured after 5 mins (reference value: 136.7 to 146.2 ms); format: toxicity, organism-based; conditions: in vivo
Blood [21] = assay: Anti-aggregative activity in Wistar rat whole blood assessed as inhibition of collagen-induced aggregation preincubated for 3 mins followed by collagen induction measured for 6 mins; format: functional, tissue-based
Rattus norvegicus [22] = assay: Cardiotoxicity in Wistar rat assessed as effect on heart rate at 5 mg/kg, iv measured after 5 mins (reference value: 323 to 374.5 bpm); format: toxicity, organism-based; conditions: in vivo
Rattus norvegicus [23] = assay: Hypotensive activity in normotensive Wistar rat assessed as reduction in systolic blood pressure administered iv measured after 60 mins; format: functional
[24] = target: Adrenergic receptor alpha-2 (Rattus norvegicus) (UniProt P22086+P19328+P22909); assay: Displacement of [3H]-clonidine from adrenergic alpha2 receptor in Wistar rat cortex at 10^-5 M incubated for 25 mins by microbeta liquid scintillation counting analysis
[25] = target: Adrenergic receptor alpha-1 (Rattus norvegicus) (UniProt P15823+P23944+P43140); assay: Displacement of [3H][…]prazosin from adrenergic alpha1 receptor in Wistar rat cortex at 10^-5 M incubated for 30 mins by microbeta liquid scintillation counting analysis
Rattus norvegicus [26] = assay: Cardiotoxicity in Wistar rat assessed as effect on QRS interval time at 5 mg/kg, iv measured after 1 min (reference value: 16.7 to 20.7 ms); format: toxicity, organism-based; conditions: in vivo
Rattus norvegicus [27] = assay: Cardiotoxicity in Wistar rat assessed as effect on QT interval time at 5 mg/kg, iv measured after 5 mins (reference value: 57.7 to 61 ms); format: toxicity, organism-based; conditions: in vivo
Rattus norvegicus [28] = assay: Cardiotoxicity in Wistar rat assessed as effect on QT interval time at 5 mg/kg, iv measured after 15 mins (reference value: 57.7 to 61 ms); format: toxicity, organism-based; conditions: in vivo, 0.25 h
Rattus norvegicus [29] = assay: Cardiotoxicity in Wistar rat assessed as effect on heart rate at 5 mg/kg, iv measured after 1 min (reference value: 323 to 374.5 bpm); format: toxicity, organism-based; conditions: in vivo
Rattus norvegicus [30] = assay: Hypotensive activity in normotensive Wistar rat assessed as systolic blood pressure at 5 mg/kg, iv measured after 10 mins (reference value: 119.2 to 148.6 mmHg); format: functional
Rattus norvegicus [31] = assay: Hypotensive activity in normotensive Wistar rat assessed as diastolic blood pressure at 5 mg/kg, iv measured after 60 mins (reference value: 86.5 to 119.4 mmHg); format: functional
Rattus norvegicus [32] = assay: Hypotensive activity in normotensive Wistar rat assessed as systolic blood pressure at 5 mg/kg, iv measured after 20 mins (reference value: 119.2 to 148.6 mmHg); format: functional
[33] = target: Beta-1 adrenergic receptor (Rattus norvegicus, UniProt P18090); assay: Displacement of [3H]-CGP-12177 from adrenergic beta1 receptor in Wistar rat cortex incubated for 60 mins by microbeta liquid scintillation counting analysis
Rattus norvegicus [34] = assay: Cardiotoxicity in Wistar rat assessed as effect on QTC interval time at 5 mg/kg, iv measured after 15 mins (reference value: 136.7 to 146.2 ms); format: toxicity, organism-based; conditions: in vivo, 0.25 h
Rattus norvegicus [35] = assay: Hypotensive activity in normotensive Wistar rat assessed as systolic blood pressure at 5 mg/kg, iv measured after 30 mins (reference value: 119.2 to 148.6 mmHg); format: functional
Rattus norvegicus [36] = assay: Cardiotoxicity in Wistar rat assessed as effect on PQ interval time at 5 mg/kg, iv measured after 1 min (reference value: 52 to 57 ms); format: toxicity, organism-based; conditions: in vivo
Rattus norvegicus [37] = assay: Hypotensive activity in normotensive Wistar rat assessed as systolic blood pressure at 5 mg/kg, iv measured after 60 mins (reference value: 119.2 to 148.6 mmHg); format: functional
Rattus norvegicus [38] = assay: Cardiotoxicity in Wistar rat assessed as effect on QRS interval time at 5 mg/kg, iv measured after 5 mins (reference value: 16.7 to 20.7 ms); format: toxicity, organism-based; conditions: in vivo

Sequence of Beta-1 adrenergic receptor (P18090 whole entry): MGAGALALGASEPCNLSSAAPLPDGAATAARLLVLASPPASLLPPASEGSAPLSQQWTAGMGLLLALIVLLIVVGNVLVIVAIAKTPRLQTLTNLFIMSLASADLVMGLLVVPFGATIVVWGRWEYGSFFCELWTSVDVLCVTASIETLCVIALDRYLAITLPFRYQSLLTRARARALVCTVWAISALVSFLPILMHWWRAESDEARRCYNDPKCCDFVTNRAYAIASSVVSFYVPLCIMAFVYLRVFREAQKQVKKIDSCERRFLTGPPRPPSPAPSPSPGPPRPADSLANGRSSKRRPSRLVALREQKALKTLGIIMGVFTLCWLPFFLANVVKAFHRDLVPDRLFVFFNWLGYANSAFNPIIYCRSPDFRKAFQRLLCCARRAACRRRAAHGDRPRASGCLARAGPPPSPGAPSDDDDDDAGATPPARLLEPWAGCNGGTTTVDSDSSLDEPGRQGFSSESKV
Sequence of Beta-2 adrenergic receptor (Q8K4Z4 whole entry): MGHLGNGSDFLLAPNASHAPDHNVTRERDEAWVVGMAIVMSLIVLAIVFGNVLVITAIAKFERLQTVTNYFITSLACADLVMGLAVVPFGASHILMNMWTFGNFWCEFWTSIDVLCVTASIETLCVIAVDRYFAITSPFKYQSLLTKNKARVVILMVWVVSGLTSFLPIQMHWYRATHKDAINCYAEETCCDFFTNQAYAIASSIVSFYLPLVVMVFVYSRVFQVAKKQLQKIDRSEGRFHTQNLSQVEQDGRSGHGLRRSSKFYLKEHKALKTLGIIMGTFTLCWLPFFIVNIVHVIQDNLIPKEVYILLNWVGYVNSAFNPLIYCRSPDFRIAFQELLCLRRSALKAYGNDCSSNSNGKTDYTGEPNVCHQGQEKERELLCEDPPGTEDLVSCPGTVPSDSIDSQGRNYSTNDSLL

Structure (SMILES): CC(C)NCC(O)COc1cccc2ccccc12 (stereo unspecified) [PROPRANOLOL]
- ED50 (Rattus norvegicus [1]): 0.36 mg/kg

Structure (SMILES): COc1ccccc1OCCNCC(O)COc1cccc2[nH]c3ccccc3c12 (stereo unspecified) [CARVEDILOL]
- inhibition (Blood [2]): inactive
- inhibition (Rattus norvegicus [3]): Active
- inhibition (Blood [4]): inactive
- ED50 (Rattus norvegicus [1]): 1.05 mg/kg

- IC50 [5]: 0.0329 µM
- inhibition (Rattus norvegicus [6]): Dose-dependent effect
- inhibition (Rattus norvegicus [6]; concentration not given here): 95%
Structure (SMILES): COc1ccc(CCN(C)CCCC(C#N)(c2ccc(OC)c(OC)c2)C(C)C)cc1OC (stereo unspecified) [VERAPAMIL]

- Kb [15]: 0.655 µM
- IC50 (Blood [21]): 62.7 µM
- Activity [24]: inactive
- Activity [25]: inactive
- IC50 [33]: 0.785 µM
Structure (SMILES): Cc1cccc2c(=O)c3ccc(OCC(O)CNC(C)(C)C)cc3oc12.Cl (racemic)
- Activity (Rattus norvegicus [7]): 129.2 mmHg
- Time (Rattus norvegicus [8]): 59.5 ms
- Activity (Rattus norvegicus [9]): 123.8 mmHg
- Activity (Rattus norvegicus [10]): 339.2 bpm
- Activity (Rattus norvegicus [11]): 125 mmHg
- Activity (Rattus norvegicus [12]): 166.6 mmHg
- Time (Rattus norvegicus [13]): 139.8 ms
- Activity (Rattus norvegicus [14]): 126 mmHg
- Time (Rattus norvegicus [16]): 18.5 ms
- Time (Rattus norvegicus [17]): 55.5 ms
- inhibition (Rattus norvegicus [18]): Active
- Time (Rattus norvegicus [19]): 59 ms
- Time (Rattus norvegicus [20]): 135.2 ms
- inhibition (Blood [21]): Dose-dependent effect
- Activity (Rattus norvegicus [22]): 310 bpm
- Activity (Rattus norvegicus [23]): inactive
- Time (Rattus norvegicus [26]): 18 ms
- Time (Rattus norvegicus [27]): 59.5 ms
- Time (Rattus norvegicus [28]): 58.5 ms
- Activity (Rattus norvegicus [29]): 337 bpm
- Activity (Rattus norvegicus [30]): 159.2 mmHg
- Activity (Rattus norvegicus [31]): 114 mmHg
- Activity (Rattus norvegicus [32]): 160 mmHg
- Time (Rattus norvegicus [34]): 138.9 ms
- Activity (Rattus norvegicus [35]): 155.8 mmHg
- Time (Rattus norvegicus [36]): 60.5 ms
- Activity (Rattus norvegicus [37]): 144 mmHg
- Time (Rattus norvegicus [38]): 18.2 ms

From ChEMBL document CHEMBL4118148, “Design, synthesis and cardiovascular evaluation of some aminoisopropanoloxy derivatives of xanthone” (Bioorg Med Chem, 2018)
